Data from PubChem BioAssay AID1963971 (Molecular Pharmacology Branch, DTP, NCI, 2024).

Tested on: 953936-095-R-J2-PDC spheroids with HUVEC/MSC, viability
Test: Anticancer human tumor 953936-095-R-J2-PDC patient-derived cervical squamous cell carcinoma cell line growth inhibition [PI3K]
Settings: for IC50: curve of first compound; for viability, T/C: stronger effect = lower value
Outline: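 Complex 3D spheroids (cancer cells + endothelial HUVEC + mesenchymal stem cells); drug pairs of targeted agent x inavolisib/alpelisib/duvelisib/copanlisib; half-log series from ~Cmax, max 10 microM if Cmax unknown; endpoint viability.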
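Further: spheroids exposed to compounds for seven days before read-out.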

Structure (SMILES): CNC(=O)c1ccc(N2C(=S)N(c3ccc(C#N)c(C(F)(F)F)c3)C(=O)C2(C)C)cc1F + COc1c(OCCCN2CCOCC2)ccc2c3n(c(=NC(=O)c4cnc(N)nc4)nc12)CCN3
- IC50 (second compound 0.00316 µM): > 10000 nM
- IC50 (second compound 0.01 µM): > 10000 nM
- IC50 (second compound 0.0316 µM): < 31.6 nM
- IC50 (second compound 0.1 µM): < 31.6 nM
- IC50 (second compound 0.316 µM): < 31.6 nM
- IC50 (second compound 1 µM): < 31.6 nM
- viability, T/C (second compound 0.00316 µM, first compound 0.0316 µM): 86.8%
- viability, T/C (second compound 0.00316 µM, first compound 0.1 µM): 85%
- viability, T/C (second compound 0.00316 µM, first compound 0.316 µM): 92%
- viability, T/C (second compound 0.00316 µM, first compound 1 µM): 89.7%
- viability, T/C (second compound 0.00316 µM, first compound 3.16 µM): 81.6%
- viability, T/C (second compound 0.00316 µM, first compound 10 µM): 70%
- viability, T/C (second compound 0.01 µM, first compound 0.0316 µM): 72.6%
- viability, T/C (second compound 0.01 µM, first compound 0.1 µM): 72.3%
- viability, T/C (second compound 0.01 µM, first compound 0.316 µM): 76.7%
- viability, T/C (second compound 0.01 µM, first compound 1 µM): 66.6%
- viability, T/C (second compound 0.01 µM, first compound 3.16 µM): 74.6%
- viability, T/C (second compound 0.01 µM, first compound 10 µM): 63.9%
- viability, T/C (second compound 0.0316 µM, first compound 0.0316 µM): 42.1%
- viability, T/C (second compound 0.0316 µM, first compound 0.1 µM): 43%
- viability, T/C (second compound 0.0316 µM, first compound 0.316 µM): 42.3%
- viability, T/C (second compound 0.0316 µM, first compound 1 µM): 45.8%
- viability, T/C (second compound 0.0316 µM, first compound 3.16 µM): 41.6%
- viability, T/C (second compound 0.0316 µM, first compound 10 µM): 37.3%
- viability, T/C (second compound 0.1 µM, first compound 0.0316 µM): 19.2%
- viability, T/C (second compound 0.1 µM, first compound 0.1 µM): 18.7%
- viability, T/C (second compound 0.1 µM, first compound 0.316 µM): 18.4%
- viability, T/C (second compound 0.1 µM, first compound 1 µM): 18%
- viability, T/C (second compound 0.1 µM, first compound 3.16 µM): 19.6%
- viability, T/C (second compound 0.1 µM, first compound 10 µM): 17.2%
- viability, T/C (second compound 0.316 µM, first compound 0.0316 µM): 6.13%
- viability, T/C (second compound 0.316 µM, first compound 0.1 µM): 6.8%
- viability, T/C (second compound 0.316 µM, first compound 0.316 µM): 6.44%
- viability, T/C (second compound 0.316 µM, first compound 1 µM): 6.88%
- viability, T/C (second compound 0.316 µM, first compound 3.16 µM): 8.06%
- viability, T/C (second compound 0.316 µM, first compound 10 µM): 6.65%
- viability, T/C (second compound 1 µM, first compound 0.0316 µM): 1.46%
- viability, T/C (second compound 1 µM, first compound 0.1 µM): 1.67%
- viability, T/C (second compound 1 µM, first compound 0.316 µM): 1.58%
- viability, T/C (second compound 1 µM, first compound 1 µM): 1.92%
- viability, T/C (second compound 1 µM, first compound 3.16 µM): 1.61%
- viability, T/C (second compound 1 µM, first compound 10 µM): 1.49%

Structure (SMILES): Cn1cnc2c(F)c(Nc3ccc(Br)cc3Cl)c(C(=O)NOCCO)cc21 + COc1c(OCCCN2CCOCC2)ccc2c3n(c(=NC(=O)c4cnc(N)nc4)nc12)CCN3
- IC50 (second compound 0.00316 µM): 370 nM
- IC50 (second compound 0.01 µM): 81 nM
- IC50 (second compound 0.0316 µM): < 9.49 nM
- IC50 (second compound 0.1 µM): < 9.49 nM
- IC50 (second compound 0.316 µM): < 9.49 nM
- IC50 (second compound 1 µM): < 9.49 nM
- viability, T/C (second compound 0.00316 µM, first compound 0.00949 µM): 65.8%
- viability, T/C (second compound 0.00316 µM, first compound 0.03 µM): 69.6%
- viability, T/C (second compound 0.00316 µM, first compound 0.0949 µM): 52%
- viability, T/C (second compound 0.00316 µM, first compound 0.3 µM): 59.1%
- viability, T/C (second compound 0.00316 µM, first compound 0.949 µM): 36.6%
- viability, T/C (second compound 0.00316 µM, first compound 3 µM): 25.4%
- viability, T/C (second compound 0.01 µM, first compound 0.00949 µM): 63.4%
- viability, T/C (second compound 0.01 µM, first compound 0.03 µM): 58.8%
- viability, T/C (second compound 0.01 µM, first compound 0.0949 µM): 45.9%
- viability, T/C (second compound 0.01 µM, first compound 0.3 µM): 42.1%
- viability, T/C (second compound 0.01 µM, first compound 0.949 µM): 26.2%
- viability, T/C (second compound 0.01 µM, first compound 3 µM): 18.3%
- viability, T/C (second compound 0.0316 µM, first compound 0.00949 µM): 36.7%
- viability, T/C (second compound 0.0316 µM, first compound 0.03 µM): 33.1%
- viability, T/C (second compound 0.0316 µM, first compound 0.0949 µM): 19.7%
- viability, T/C (second compound 0.0316 µM, first compound 0.3 µM): 15.4%
- viability, T/C (second compound 0.0316 µM, first compound 0.949 µM): 7.92%
- viability, T/C (second compound 0.0316 µM, first compound 3 µM): 4.93%
- viability, T/C (second compound 0.1 µM, first compound 0.00949 µM): 12.6%
- viability, T/C (second compound 0.1 µM, first compound 0.03 µM): 8.91%
- viability, T/C (second compound 0.1 µM, first compound 0.0949 µM): 5.78%
- viability, T/C (second compound 0.1 µM, first compound 0.3 µM): 3.64%
- viability, T/C (second compound 0.1 µM, first compound 0.949 µM): 2.7%
- viability, T/C (second compound 0.1 µM, first compound 3 µM): 0.27%
- viability, T/C (second compound 0.316 µM, first compound 0.00949 µM): 3.5%
- viability, T/C (second compound 0.316 µM, first compound 0.03 µM): 2.08%
- viability, T/C (second compound 0.316 µM, first compound 0.0949 µM): 1.09%
- viability, T/C (second compound 0.316 µM, first compound 0.3 µM): 0.45%
- viability, T/C (second compound 0.316 µM, first compound 0.949 µM): 0.15%
- viability, T/C (second compound 0.316 µM, first compound 3 µM): 0.17%
- viability, T/C (second compound 1 µM, first compound 0.00949 µM): 0.66%
- viability, T/C (second compound 1 µM, first compound 0.03 µM): 0.31%
- viability, T/C (second compound 1 µM, first compound 0.0949 µM): 0.21%
- viability, T/C (second compound 1 µM, first compound 0.3 µM): 0.16%
- viability, T/C (second compound 1 µM, first compound 0.949 µM): 0.15%
- viability, T/C (second compound 1 µM, first compound 3 µM): 0.2%
